Assay results reported in ChEMBL document CHEMBL1201861, “Genomics of Drug Sensitity in Cancer screening data, Wellcome Trust Sanger Institute”.

Columns and labels:
Test in all cases: cells
[1] = system: COR-L23; assay type: functional, cell-based, Homo sapiens; settings: Homo sapiens, COR-L23;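 further: cell viability assay measuring how strongly compounds suppress growth of COR-L23 cells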
Description: SANGER: Inhibition of human COR-L23 cell growth in a cell viability assay.

[2] = system: CTV-1; assay type: functional, cell-based; settings: Homo sapiens;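 further: growth inhibition of the cell line, read out with a cell viability assay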
Description: SANGER: Inhibition of human CTV-1 cell growth in a cell viability assay.

[3] = system: DEL; assay type: functional, cell-based; settings: Homo sapiens;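 further: growth inhibition of the human DEL cell line, read out with a cell viability assay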
Description: SANGER: Inhibition of human DEL cell growth in a cell viability assay.

[4] = system: DOK; assay type: functional, cell-based, Homo sapiens; settings: Homo sapiens, DOK;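 further: cell viability assay read-out, values reflect inhibition of cell growth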
Description: SANGER: Inhibition of human DOK cell growth in a cell viability assay.

[5] = system: DU-145; assay type: functional, cell-based, Homo sapiens; settings: Homo sapiens, DU-145
Description: SANGER: Inhibition of human DU-145 cell growth in a cell viability assay.

[6] = system: EW-11; assay type: functional, cell-based, Homo sapiens; settings: Homo sapiens, EW-11;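 further: growth inhibition of human EW-11 cells, measured with a cell viability assay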
Description: SANGER: Inhibition of human EW-11 cell growth in a cell viability assay.

[7] = system: GI-ME-N; assay type: functional, cell-based, Homo sapiens; settings: Homo sapiens, GI-ME-N;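 further: growth inhibition of human GI-ME-N cells, read out with a cell viability assay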
Description: SANGER: Inhibition of human GI-ME-N cell growth in a cell viability assay.

[8] = system: GMS-10; assay type: functional, cell-based, Homo sapiens; settings: Homo sapiens, GMS-10;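 further: growth inhibition of GMS-10 cells, read out as cell viability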
Description: SANGER: Inhibition of human GMS-10 cell growth in a cell viability assay.

[9] = system: GOTO; assay type: functional, cell-based, Homo sapiens; settings: Homo sapiens, GOTO;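 further: growth inhibition of GOTO cells, read out by a cell viability assay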
Description: SANGER: Inhibition of human GOTO cell growth in a cell viability assay.

[10] = system: GP5d; assay type: functional, cell-based, Homo sapiens; settings: Homo sapiens, GP5d;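 further: growth inhibition of human GP5d cells, read out with a cell viability assay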
Description: SANGER: Inhibition of human GP5d cell growth in a cell viability assay.

[11] = system: HCC1395; assay type: functional, cell-based, Homo sapiens; settings: Homo sapiens, HCC1395;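 further: growth inhibition of HCC1395 cells, read out by a cell viability assay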
Description: SANGER: Inhibition of human HCC1395 cell growth in a cell viability assay.

[12] = system: HGC-27; assay type: functional, cell-based, Homo sapiens; settings: Homo sapiens, HGC-27;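 further: growth inhibition of human HGC-27 cells, read out in a cell viability assay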
Description: SANGER: Inhibition of human HGC-27 cell growth in a cell viability assay.

[13] = system: HMV-2 cell line; assay type: functional, cell-based, Homo sapiens; settings: Homo sapiens, HMV-2;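 further: growth inhibition of HMV-II cells, read out with a cell viability assay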
Description: SANGER: Inhibition of human HMV-II cell growth in a cell viability assay.

[14] = system: HN; assay type: functional, cell-based, Homo sapiens; settings: Homo sapiens, HN
Description: SANGER: Inhibition of human HN cell growth in a cell viability assay.

[15] = system: HT; assay type: functional, cell-based; settings: Homo sapiens
Description: SANGER: Inhibition of human HT cell growth in a cell viability assay.

[16] = system: HuO-3N1; assay type: functional, cell-based, Homo sapiens; settings: Homo sapiens, HuO-3N1;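 further: cell viability readout used to measure how strongly compounds suppress proliferation of human HuO-3N1 cells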
Description: SANGER: Inhibition of human HuO-3N1 cell growth in a cell viability assay.

[17] = system: IA-LM; assay type: functional, cell-based, Homo sapiens; settings: Homo sapiens, IA-LM;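 further: cell viability assay measuring growth inhibition of human IA-LM cells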
Description: SANGER: Inhibition of human IA-LM cell growth in a cell viability assay.

[18] = system: KE-37; assay type: functional, cell-based; settings: Homo sapiens;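 further: growth inhibition of KE-37 cells, read out with a cell viability assay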
Description: SANGER: Inhibition of human KE-37 cell growth in a cell viability assay.

[19] = system: KYSE-450; assay type: functional, cell-based; settings: Homo sapiens;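 further: cell growth inhibition measured by a viability assay in human KYSE-450 cells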
Description: SANGER: Inhibition of human KYSE-450 cell growth in a cell viability assay.

[20] = system: LU-139; assay type: functional, cell-based; settings: Homo sapiens
Description: SANGER: Inhibition of human LU-139 cell growth in a cell viability assay.

[21] = system: LoVo; assay type: functional, cell-based; settings: Homo sapiens;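 further: growth inhibition of human LoVo cells, read out with a cell viability assay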
Description: SANGER: Inhibition of human LoVo cell growth in a cell viability assay.

[22] = system: MEG-01; assay type: functional, cell-based; settings: Homo sapiens;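 further: growth inhibition of MEG-01 cells, read out by a cell viability assay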
Description: SANGER: Inhibition of human MEG-01 cell growth in a cell viability assay.

[23] = system: MOLT-4; assay type: functional, cell-based; settings: Homo sapiens;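 further: growth inhibition of MOLT-4 cells, determined with a cell viability readout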
Description: SANGER: Inhibition of human MOLT-4 cell growth in a cell viability assay.

[24] = system: NCI-H2030; assay type: functional, cell-based, Homo sapiens; settings: Homo sapiens, NCI-H2030;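 further: growth inhibition of human NCI-H2030 cells, read out by a cell viability assay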
Description: SANGER: Inhibition of human NCI-H2030 cell growth in a cell viability assay.

[25] = system: NCI-H2052; assay type: functional, cell-based, Homo sapiens; settings: Homo sapiens, NCI-H2052;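 further: growth inhibition of NCI-H2052 cells, read out with a cell viability assay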
Description: SANGER: Inhibition of human NCI-H2052 cell growth in a cell viability assay.

[26] = system: NCI-H2170; assay type: functional, cell-based, Homo sapiens; settings: Homo sapiens, NCI-H2170;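 further: cell viability assay measuring growth inhibition of human NCI-H2170 cancer cells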
Description: SANGER: Inhibition of human NCI-H2170 cell growth in a cell viability assay.

[27] = system: NCI-H226; assay type: functional, cell-based, Homo sapiens; settings: Homo sapiens, NCI-H226;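 further: cell viability read-out used to gauge growth inhibition of the cells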
Description: SANGER: Inhibition of human NCI-H226 cell growth in a cell viability assay.

[28] = system: NCI-H2452; assay type: functional, cell-based, Homo sapiens; settings: Homo sapiens, NCI-H2452;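 further: growth inhibition of NCI-H2452 cells, read out with a cell viability assay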
Description: SANGER: Inhibition of human NCI-H2452 cell growth in a cell viability assay.

[29] = system: NCI-H720; assay type: functional, cell-based; settings: Homo sapiens;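 further: growth inhibition of human NCI-H720 cells determined by a cell viability assay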
Description: SANGER: Inhibition of human NCI-H720 cell growth in a cell viability assay.

[30] = system: NCI-H810; assay type: functional, cell-based, Homo sapiens; settings: Homo sapiens, NCI-H810;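 further: IC50 reflects inhibition of cancer cell line growth, read out with a cell viability assay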
Description: SANGER: Inhibition of human NCI-H810 cell growth in a cell viability assay.

[31] = system: NEC8; assay type: functional, cell-based, Homo sapiens; settings: Homo sapiens, NEC8;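 further: growth inhibition of human NEC8 cells, read out by a cell viability assay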
Description: SANGER: Inhibition of human NEC8 cell growth in a cell viability assay.

[32] = system: OS-RC-2; assay type: functional, cell-based, Homo sapiens; settings: Homo sapiens, OS-RC-2;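 further: growth inhibition of human OS-RC-2 cells, measured by a cell viability assay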
Description: SANGER: Inhibition of human OS-RC-2 cell growth in a cell viability assay.

[33] = system: OVCAR-3; assay type: functional, cell-based, Homo sapiens; settings: Homo sapiens, OVCAR-3;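 further: growth inhibition of human OVCAR-3 cells, determined by a cell viability assay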
Description: SANGER: Inhibition of human OVCAR-3 cell growth in a cell viability assay.

[34] = system: PC-14; assay type: functional, cell-based, Homo sapiens; settings: Homo sapiens, PC-14;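 further: cell viability assay measuring inhibition of PC-14 cell growth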
Description: SANGER: Inhibition of human PC-14 cell growth in a cell viability assay.

[35] = system: PSN1; assay type: functional, cell-based, Homo sapiens; settings: Homo sapiens, PSN1;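 further: suppression of growth of human PSN1 cells, read out by a cell viability assay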
Description: SANGER: Inhibition of human PSN1 cell growth in a cell viability assay.

[36] = system: RMG-I; assay type: functional, cell-based, Homo sapiens; settings: Homo sapiens, RMG-I;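 further: growth inhibition of human RMG-I cells, read out with a cell viability assay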
Description: SANGER: Inhibition of human RMG-I cell growth in a cell viability assay.

[37] = system: RT-112; assay type: functional, cell-based, Homo sapiens; settings: Homo sapiens, RT-112
Description: SANGER: Inhibition of human RT-112 cell growth in a cell viability assay.

[38] = system: SAS; assay type: functional, cell-based, Homo sapiens; settings: Homo sapiens, SAS;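 further: growth inhibition of SAS cells, read out with a cell viability assay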
Description: SANGER: Inhibition of human SAS cell growth in a cell viability assay.

[39] = system: SK-LMS-1; assay type: functional, cell-based, Homo sapiens; settings: Homo sapiens, SK-LMS-1;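 further: growth inhibition of human SK-LMS-1 cells, read out with a cell viability assay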
Description: SANGER: Inhibition of human SK-LMS-1 cell growth in a cell viability assay.

[40] = system: SK-N-FI; assay type: functional, cell-based, Homo sapiens; settings: Homo sapiens, SK-N-FI;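 further: cell viability assay measuring growth inhibition of human SK-N-FI cells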
Description: SANGER: Inhibition of human SK-N-FI cell growth in a cell viability assay.

[41] = system: TCC-SUP; assay type: functional, cell-based, Homo sapiens; settings: Homo sapiens, TCC-SUP;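 further: growth inhibition of TCC-SUP cells, read out with a cell viability assay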
Description: SANGER: Inhibition of human TCCSUP cell growth in a cell viability assay.

[42] = system: ASPC1; assay type: functional, cell-based, Homo sapiens; settings: Homo sapiens, ASPC1;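 further: growth inhibition of AsPC-1 cells, read out with a cell viability assay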
Description: SANGER: Inhibition of human AsPC-1 cell growth in a cell viability assay.

[43] = system: C-33-A; assay type: functional, cell-based, Homo sapiens; settings: Homo sapiens, C-33-A;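 further: cell viability assay measuring growth inhibition of C-33-A cells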
Description: SANGER: Inhibition of human C-33-A cell growth in a cell viability assay.

[44] = system: CAL-12T; assay type: functional, cell-based, Homo sapiens; settings: Homo sapiens, CAL-12T;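 further: growth inhibition of human CAL-12T cells, read out with a cell viability assay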
Description: SANGER: Inhibition of human CAL-12T cell growth in a cell viability assay.

[45] = system: CAL-51; assay type: functional, cell-based, Homo sapiens; settings: Homo sapiens, CAL-51;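 further: human CAL-51 cell line, growth inhibition read out via a cell viability assay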
Description: SANGER: Inhibition of human CAL-51 cell growth in a cell viability assay.

[46] = system: TE-9; assay type: functional, cell-based, Homo sapiens; settings: Homo sapiens, TE-9;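 further: cell growth inhibition, measured with a cell viability readout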
Description: SANGER: Inhibition of human TE-9 cell growth in a cell viability assay.

[47] = system: U2OS; assay type: functional, cell-based, Homo sapiens, U-2-OS; settings: Homo sapiens, U2OS;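 further: growth inhibition of human U-2-OS cells, determined with a cell viability assay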
Description: SANGER: Inhibition of human U-2-OS cell growth in a cell viability assay.

[48] = system: U-251; assay type: functional, cell-based, Homo sapiens; settings: Homo sapiens, U-251;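 further: growth inhibition of human U-251 cells, read out through a cell viability assay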
Description: SANGER: Inhibition of human U251 cell growth in a cell viability assay.

[49] = system: VA-ES-BJ; assay type: functional, cell-based, Homo sapiens; settings: Homo sapiens, VA-ES-BJ;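 further: growth inhibition of the VA-ES-BJ cell line, read out by a cell viability assay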
Description: SANGER: Inhibition of human VA-ES-BJ cell growth in a cell viability assay.

[50] = system: COLO-679; assay type: functional, cell-based, Homo sapiens; settings: Homo sapiens, COLO-679
Description: SANGER: Inhibition of human COLO-679 cell growth in a cell viability assay.

[51] = system: KP-N-YN; assay type: functional, cell-based; settings: Homo sapiens;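 further: growth inhibition of KP-N-YN cells, read out with a cell viability assay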
Description: SANGER: Inhibition of human KP-N-YN cell growth in a cell viability assay.

[52] = system: NB7; assay type: functional, cell-based; settings: Homo sapiens;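 further: growth inhibition of NB7 cells, read out with a cell viability assay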
Description: SANGER: Inhibition of human NB7 cell growth in a cell viability assay.

CN(c1ncccc1CNc1nc(Nc2ccc3c(c2)CC(=O)N3)ncc1C(F)(F)F)S(C)(=O)=O [PF-00562271]
IC50 [1]: > 2560 nM | IC50 [2]: > 2560 nM | IC50 [3]: > 2560 nM | IC50 [4]: > 2560 nM | IC50 [5]: 2490 nM | IC50 [6]: > 2560 nM | IC50 [7]: > 2560 nM | IC50 [8]: > 2560 nM | IC50 [9]: > 2560 nM | IC50 [10]: > 2560 nM | IC50 [11]: > 2560 nM | IC50 [12]: > 2560 nM | IC50 [13]: > 2560 nM | IC50 [14]: > 2560 nM | IC50 [15]: > 2560 nM | IC50 [16]: > 2560 nM | IC50 [17]: > 2560 nM | IC50 [18]: > 2560 nM | IC50 [19]: > 2560 nM | IC50 [20]: > 2560 nM | IC50 [21]: > 2560 nM | IC50 [22]: > 2560 nM | IC50 [23]: > 2560 nM | IC50 [24]: > 2560 nM | IC50 [25]: > 2560 nM | IC50 [26]: > 2560 nM | IC50 [27]: > 2560 nM | IC50 [28]: > 2560 nM | IC50 [29]: > 2560 nM | IC50 [30]: 1110 nM | IC50 [31]: > 2560 nM | IC50 [32]: > 2560 nM | IC50 [33]: > 2560 nM | IC50 [34]: > 2560 nM | IC50 [35]: > 2560 nM | IC50 [36]: > 2560 nM | IC50 [37]: 985 nM | IC50 [38]: > 2.56 µM | IC50 [39]: > 2560 nM | IC50 [40]: > 2560 nM | IC50 [41]: > 2560 nM | IC50 [42]: > 2560 nM | IC50 [43]: > 2560 nM | IC50 [44]: > 2560 nM | IC50 [45]: > 2560 nM | IC50 [46]: > 2560 nM | IC50 [47]: > 2560 nM | IC50 [48]: 1740 nM | IC50 [49]: 1900 nM | IC50 [50]: > 2560 nM

COc1ccc(-c2ccc3c(N4CCOC[C@@H]4C)nc(N4CCOC[C@@H]4C)nc3n2)cc1CO [AZD-8055]
IC50 [1]: 1350 nM | IC50 [2]: 86.4 nM | IC50 [3]: 968 nM | IC50 [4]: 513 nM | IC50 [5]: > 2000 nM | IC50 [6]: 1620 nM | IC50 [7]: 1030 nM | IC50 [8]: 1750 nM | IC50 [9]: 1740 nM | IC50 [10]: > 2000 nM | IC50 [11]: > 2000 nM | IC50 [12]: 264 nM | IC50 [14]: 1900 nM | IC50 [15]: 294 nM | IC50 [16]: 384 nM | IC50 [17]: 596 nM | IC50 [18]: 432 nM | IC50 [51]: > 2 µM | IC50 [19]: 827 nM | IC50 [20]: 23.3 nM | IC50 [21]: 202 nM | IC50 [22]: > 2000 nM | IC50 [23]: 677 nM | IC50 [52]: > 2 µM | IC50 [24]: 1240 nM | IC50 [25]: 1860 nM | IC50 [26]: > 2000 nM | IC50 [27]: > 2000 nM | IC50 [28]: 619 nM | IC50 [29]: 29.4 nM | IC50 [30]: > 2000 nM | IC50 [31]: 417 nM | IC50 [32]: 1080 nM | IC50 [33]: > 2000 nM | IC50 [34]: 590 nM | IC50 [35]: 771 nM | IC50 [36]: > 2000 nM | IC50 [37]: 849 nM | IC50 [38]: > 2 µM | IC50 [40]: 1560 nM | IC50 [41]: 1470 nM | IC50 [42]: 738 nM | IC50 [43]: 904 nM | IC50 [44]: 780 nM | IC50 [45]: 197 nM | IC50 [46]: > 2000 nM | IC50 [47]: 760 nM | IC50 [48]: > 2000 nM | IC50 [49]: 343 nM | IC50 [50]: > 2000 nM

COc1cc(F)c(F)c(Nc2ccc(I)cc2F)c1NS(=O)(=O)C1(CC(O)CO)CC1 (stereo not given)
IC50 [1]: 2780 nM | IC50 [2]: 4960 nM | IC50 [3]: > 5000 nM | IC50 [4]: 432 nM | IC50 [5]: 1060 nM | IC50 [6]: > 5000 nM | IC50 [7]: 1580 nM | IC50 [8]: 3800 nM | IC50 [9]: > 5000 nM | IC50 [10]: > 5000 nM | IC50 [11]: > 5000 nM | IC50 [12]: > 5000 nM | IC50 [14]: 1120 nM | IC50 [15]: > 5000 nM | IC50 [16]: > 5000 nM | IC50 [17]: 4190 nM | IC50 [18]: > 5000 nM | IC50 [51]: > 5 µM | IC50 [19]: > 5000 nM | IC50 [20]: > 5000 nM | IC50 [21]: 396 nM | IC50 [22]: 786 nM | IC50 [23]: > 5000 nM | IC50 [52]: 4.71 µM | IC50 [24]: > 5000 nM | IC50 [25]: > 5000 nM | IC50 [26]: > 5000 nM | IC50 [27]: > 5000 nM | IC50 [28]: > 5000 nM | IC50 [29]: > 5000 nM | IC50 [30]: > 5000 nM | IC50 [31]: > 5000 nM | IC50 [32]: > 5000 nM | IC50 [33]: > 5000 nM | IC50 [34]: 4170 nM | IC50 [35]: 198 nM | IC50 [36]: > 5000 nM | IC50 [37]: 1590 nM | IC50 [38]: 3.94 µM | IC50 [40]: 1880 nM | IC50 [41]: > 5000 nM | IC50 [42]: 1070 nM | IC50 [43]: > 5000 nM | IC50 [44]: 1070 nM | IC50 [45]: > 5000 nM | IC50 [46]: > 5000 nM | IC50 [47]: 2750 nM | IC50 [48]: > 5000 nM | IC50 [49]: > 5000 nM | IC50 [50]: 153 nM
